Test results taken from US20060009520A1, “Retinoid-based methods for altering macrophage cholesterol” (priority 2004, published 2006).

Experiments:
[1] = test system: ABCA1, ABCG1, SREBP-1c, apoE, LXRα, Cyp26 mRNA; assay: Quantitative real-time PCR of LXR target genes and Cyp26 in mouse peritoneal macrophages; type: cell-based
Experimental: Total RNA was isolated from mouse peritoneal macrophages or ˜50 mg of mouse liver tissue by using the RNeasy Mini kit (Qiagen, Valencia, Calif.) or RNA-Bee reagent (Tel-Test, Inc., Friendswood, Tex.), respectively, according to the manufacturer's protocol. Real-time quantitative PCR assays were performed by using the Mx4000 Quantitative PCR System (Stratagene, La Jolla, Calif.). Briefly, 5 μg of total RNA was treated with RNase-free DNase I (Ambion, Austin, Tex.), and first-strand cDNA was synthesized with oligo(dT)12-18 by using a Superscript II RNase H^− reverse transcriptase reagent kit (Invitrogen) according to the manufacturer's protocol. For quantification of mouse ABCA1, ABCG1, SREBP-1c, LXRα, ApoE, and fatty acid synthase (FAS) mRNA levels, each amplification mixture contained 62.5 ng of cDNA, appropriate concentrations of forward and reverse primers and of dual-labeled fluorogenic probe (Biosearch Technologies, Novato, Calif.), and 12.5 μl of TaqMan Universal PCR master mix (Applied Biosystems, Foster City, Calif.). PCR thermocycling parameters were 50° C. for 2 min, 95° C. for 10 min, and 45 cycles of 95° C. for 15 s and 60° C. for 1 min. All samples were analyzed for β-actin expression in the same run. Quantitative expression values were extrapolated from standard curves for the gene of interest with 10-fold dilutions of cDNA (in triplicate). Each sample was normalized to β-actin, triplicates were averaged, and relative mRNA levels were determined. The following mouse primers and probes were used: mouse ABCA1 (mABCA1) forward (F) (5′-[…]-3′), mABCA1 reverse (R) (5′-[…]-3′), and mABCA1 TaqMan probe (5′-FAM-[…]-BHQ-3′); mABCG1 F (5′-[…]-3′), mABCG1 R (5′-[…]-3′), and mABCG1 TaqMan probe (5′-FAM-[…]-BHQ-3′); mSREBP-1c F (5′-[…]-3′), mSREBP-1c R (5′-[…]-3′), and mSREBP-1c TaqMan probe (5′-FAM-[…]-BHQ-3′); mApoE F (5′-[…]-3′), mApoE R (5′-[…]-3′), and mApoE TaqMan probe (5′-FAM-[…]-BHQ-3′); mLXRα F (5′-[…]-3′), mLXRα R (5′-[…]-3′), and mLXRα TaqMan probe (5′-FAM-[…]-BHQ-3′); mFAS F (5′-[…]-3′), mFAS R (5′-[…]-3′), and mFAS TaqMan probe (5′-FAM-[…]-BHQ-3′); and mβ-actin F (5′-[…]-3′), mβ-actin R (5′-[…]-3′), and mβ-actin TaqMan probe (5′-JOE-[…]-BHQ-3′).
For quantification of mouse Cyp26 mRNA levels, each amplification mixture (25 μ) contained 62.5 ng of cDNA, 100 nM concentrations of reverse and forward primers, and 2.5 μl of 10× SYBR Green PCR master mix (Perkin-Elmer Life Sciences, Boston, Mass.). Quantitative expression values were extrapolated from standard curves for Cyp26 expression with 10-fold dilutions of cDNA (in triplicate). Each sample was normalized to β-actin that was deduced from TaqMan assays, triplicate results were averaged, and relative Cyp26 mRNA levels were determined. The primers mCyp26 F (5′-[…]-3′) and mCyp26 R (5′-[…]-3′) were used. RNA measurements from human monocyte-derived macrophages were performed as described previously (10, 44).

[2] = test system: SREBP-1c, FAS, ABCA1, Cyp26 mRNA in liver; assay: Gene expression in mouse liver after intraperitoneal injection; type: in vivo; settings: mice, intraperitoneal 1 or 10 mg/kg, 24 h
Experimental: (A) RAR regulation of ABCA1 and SREBP-1c expression in mouse peritoneal macrophages. […] ABCA1 and SREBP-1c mRNA levels were determined by quantitative real-time reverse transcription-PCR and standardized against β-actin mRNA levels. The results are expressed as mean±the SEM (n=4 and 6). *, P<0.05; **, P<0.01 (compared to control). […] After 24 h, the mice were anesthetized, the livers were perfused, and the square lobes were removed for isolation of RNA. […] The results are expressed as mean±the SEM (n=5).
Total RNA was isolated from mouse peritoneal macrophages or ˜50 mg of mouse liver tissue by using the RNeasy Mini kit (Qiagen, Valencia, Calif.) or RNA-Bee reagent (Tel-Test, Inc., Friendswood, Tex.), respectively, according to the manufacturer's protocol. Real-time quantitative PCR assays were performed by using the Mx4000 Quantitative PCR System (Stratagene, La Jolla, Calif.). Briefly, 5 μg of total RNA was treated with RNase-free DNase I (Ambion, Austin, Tex.), and first-strand cDNA was synthesized with oligo(dT)12-18 by using a Superscript II RNase H^− reverse transcriptase reagent kit (Invitrogen) according to the manufacturer's protocol. For quantification of mouse ABCA1, ABCG1, SREBP-1c, LXRα, ApoE, and fatty acid synthase (FAS) mRNA levels, each amplification mixture contained 62.5 ng of cDNA, appropriate concentrations of forward and reverse primers and of dual-labeled fluorogenic probe (Biosearch Technologies, Novato, Calif.), and 12.5 μl of TaqMan Universal PCR master mix (Applied Biosystems, Foster City, Calif.). PCR thermocycling parameters were 50° C. for 2 min, 95° C. for 10 min, and 45 cycles of 95° C. for 15 s and 60° C. for 1 min. All samples were analyzed for β-actin expression in the same run. Quantitative expression values were extrapolated from standard curves for the gene of interest with 10-fold dilutions of cDNA (in triplicate). Each sample was normalized to β-actin, triplicates were averaged, and relative mRNA levels were determined. […]
For quantification of mouse Cyp26 mRNA levels, each amplification mixture (25 μ) contained 62.5 ng of cDNA, 100 nM concentrations of reverse and forward primers, and 2.5 μl of 10× SYBR Green PCR master mix (Perkin-Elmer Life Sciences, Boston, Mass.). Quantitative expression values were extrapolated from standard curves for Cyp26 expression with 10-fold dilutions of cDNA (in triplicate). Each sample was normalized to β-actin that was deduced from TaqMan assays, triplicate results were averaged, and relative Cyp26 mRNA levels were determined. […]

[3] = mouse peritoneal macrophages, TTNPB 1 μM, 24 h

C/C(=C\c1ccc(C(=O)O)cc1)c1ccc2c(c1)C(C)(C)CCC2(C)C [TTNPB, 4-[E-2-5,6.7.8-tetrahydro-5,5,8,8-tetramethyl-2-naphthalenyl-l-propenyl]benzoic acid]
ABCA1 mRNA [1, 3]: induction of macrophage ABCA1 mRNA
SREBP-1c mRNA [1, 3]: no effect
Cyp26 mRNA increase ([1]; murine macrophages): 30 fold
Cyp26 mRNA in liver [2]: markedly induced
FAS gene expression in liver [2]: no response
hepatic ABCA1 mRNA [2]: not induced
hepatic SREBP-1c mRNA [2]: repressed
